Source: article PMC3574212 (Journal of medicinal chemistry, 2013)
Counter-ions that a name gives are not always drawn.

What was measured:
EPAC2 = biological target: T1, EPAC2 (Mus musculus, UniProt Q9EQZ6); experiment: 8-NBD-cAMP competition binding assay; settings: for Relative Potency (RA): RA = IC50, cAMP/ IC50, compound; for EPAC2 inhibitory activity (in words): 8-NBD-cAMP competition
T1 sequence (Q9EQZ6 1-1011): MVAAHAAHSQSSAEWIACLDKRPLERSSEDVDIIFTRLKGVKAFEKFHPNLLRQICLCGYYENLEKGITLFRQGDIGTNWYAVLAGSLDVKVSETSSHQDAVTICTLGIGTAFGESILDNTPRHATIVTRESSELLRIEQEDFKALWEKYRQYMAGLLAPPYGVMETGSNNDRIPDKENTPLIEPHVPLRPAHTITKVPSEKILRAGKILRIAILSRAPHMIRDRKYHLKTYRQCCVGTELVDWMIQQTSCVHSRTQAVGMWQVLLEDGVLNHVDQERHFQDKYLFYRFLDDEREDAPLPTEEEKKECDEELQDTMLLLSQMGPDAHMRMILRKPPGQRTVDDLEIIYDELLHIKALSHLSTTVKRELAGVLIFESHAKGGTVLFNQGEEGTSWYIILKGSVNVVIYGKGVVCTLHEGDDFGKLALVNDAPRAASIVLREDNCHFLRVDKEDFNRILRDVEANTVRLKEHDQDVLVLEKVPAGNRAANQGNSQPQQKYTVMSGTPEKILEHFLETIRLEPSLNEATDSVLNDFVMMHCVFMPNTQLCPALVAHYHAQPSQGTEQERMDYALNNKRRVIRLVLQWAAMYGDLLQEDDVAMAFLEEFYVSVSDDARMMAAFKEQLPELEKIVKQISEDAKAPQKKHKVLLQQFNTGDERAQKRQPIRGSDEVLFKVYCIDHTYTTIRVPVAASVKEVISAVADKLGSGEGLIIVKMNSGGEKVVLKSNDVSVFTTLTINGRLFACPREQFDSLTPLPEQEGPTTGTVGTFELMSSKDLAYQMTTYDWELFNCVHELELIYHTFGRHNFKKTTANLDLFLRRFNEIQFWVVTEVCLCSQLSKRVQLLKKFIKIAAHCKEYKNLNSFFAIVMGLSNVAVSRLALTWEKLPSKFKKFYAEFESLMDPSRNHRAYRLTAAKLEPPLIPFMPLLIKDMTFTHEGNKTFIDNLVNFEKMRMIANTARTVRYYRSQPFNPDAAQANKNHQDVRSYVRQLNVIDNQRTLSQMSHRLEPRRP

type II PKA holoenzyme = experiment: Counter screening assay, type II PKA holoenzyme kinase activity; type: biochemical; settings: 25 µM compound, 0.1 mM cAMP
type I PKA holoenzyme = experiment: Counter screening assay, type I PKA holoenzyme kinase activity; type: biochemical; settings: 25 µM compound, 0.1 mM cAMP

Structure (SMILES)	Relative Potency (RA) (EPAC2)	IC50 (EPAC2) [µM]	also measured
Cc1cc(C)c(S(=O)(=O)c2cc(C)c(C)cc2C)c(C)c1 [Compound 5a, 1,3,5-Trimethyl-2-(2,4,5-trimethylbenzenesulfonyl)benzene]	57.1	–	–
CCCCCc1ccc(S(=O)(=O)c2c(C)cc(C)cc2C)cc1 [Compound 5b, 1,3,5-Trimethyl-2-(4-pentylbenzenesulfonyl)benzene]	<0.13	> 300	–
Cc1cc(C)c(S(=O)(=O)c2ccc(C3CCCCC3)cc2)c(C)c1 [Compound 5c, 2-(4-Cyclohexylbenzenesulfonyl)-1,3,5-trimethylbenzene]	<0.13	> 300	–
Cc1cc(C)c(S(=O)(=O)c2ccc(I)cc2)c(C)c1 [Compound 8a, 2-(4-Iodobenzenesulfonyl)-1,3,5-trimethylbenzene]	10	–	–
COc1ccc(S(=O)(=O)c2c(C)cc(C)cc2C)cc1 [Compound 8b, 2-(4-Methoxybenzenesulfonyl)-1,3,5-trimethylbenzene]	21.1	–	–
Cc1cc(C)c(S(=O)(=O)c2ccc(-c3ccc(F)nc3)cc2)c(C)c1 [Compound 9, 2-Fluoro-5-[4-(2,4,6-trimethylbenzenesulfonyl)phenyl]pyridine]	<0.13	> 300	–
Cc1cc(C)c(S(=O)(=O)c2ccc(O)cc2)c(C)c1 [Compound 10, 4-(2,4,6-Trimethylbenzenesulfonyl)phenol]	3.0	–	–
Cc1cc(C)c(S(=O)(=O)c2ccc(OC3CCCCC3)cc2)c(C)c1 [Compound 11a, 2-(4-Cyclohexyloxybenzenesulfonyl)-1,3,5-trimethylbenzene]	<0.13	> 300	–
Cc1cc(C)c(S(=O)(=O)c2ccc(OC3CCN(C(=O)OC(C)(C)C)CC3)cc2)c(C)c1 [Compound 11b, 4-[4-(2,4,6-Trimethylbenzenesulfonyl)phenoxy]-piperidine-1-carboxylic acid tert-butyl ester]	<0.13	> 300	–
Cc1cc(C)c(S(=O)(=O)c2ccc(OC3CCNCC3)cc2)c(C)c1 [Compound 11c, 4-[4-(2,4,6-Trimethylbenzenesulfonyl)phenoxy]piperidine]	<0.13	> 300	–
Cc1cc(C)c(S(=O)(=O)c2ccc(OCCN)cc2)c(C)c1 [Compound 11d, 2-[4-(2,4,6-Trimethylbenzenesulfonyl)phenoxy]ethylamine]	<0.13	> 300	–
Cc1ccc(Nc2c(C)cc(C)cc2C)cc1 [Compound 14a, p-Tolyl-(2,4,6-trimethylphenyl)amine]	10.5	–	–
Cc1cc(C)c(Nc2cc(Cl)cc(Cl)c2)c(C)c1 [Compound 14b, (3,5-Dichlorophenyl)-(2,4,6-trimethylphenyl)amine]	44.4	–	–
Cc1cc(C)c(Nc2nc(C)c(C)s2)c(C)c1 [Compound 17, (4,5-Dimethylthiazol-2-yl)-(2,4,6-trimethylphenyl)amine]	<0.13	> 300	EPAC2 inhibitory activity (in words) (EPAC2): no activity
CCc1cccn1S(=O)(=O)c1ccc(C)cc1 [Compound 20b, 2-Ethyl-1-(toluene-4-sulfonyl)-1H-pyrrole]	10	–	–
CCc1cccn1S(=O)(=O)c1ccc(OC)cc1 [Compound 20c, 2-Ethyl-1-(4-methoxybenzenesulfonyl)-1H-pyrrole]	5	–	–
CCc1cccn1S(=O)(=O)c1ccc(C(F)(F)F)cc1 [Compound 20e, 2-Ethyl-1-(4-trifluoromethyl-benzenesulfonyl)-1H-pyrrole]	<0.13	> 300	EPAC2 inhibitory activity (in words) (EPAC2): dramatic loss of EPAC inhibitory activity
CCc1cccn1S(=O)(=O)c1ccccc1C [Compound 20f, 2-Ethyl-1-(toluene-2-sulfonyl)-1H-pyrrole]	7.5	–	–
CCc1cccn1S(=O)(=O)c1cc(C)cc(C)c1 [Compound 20g, 1-(3,5-Dimethylbenzenesulfonyl)-2-ethyl-1H-pyrrole]	8.5	–	–
CCc1cccn1S(=O)(=O)c1ccc(C)cc1C [Compound 20h, 1-(2,4-Dimethylbenzenesulfonyl)-2-ethyl-1H-pyrrole]	30.8	–	–
Cc1cc(C)c(S(=O)(=O)n2ccc3ccccc32)c(C)c1 [Compound 22a, 1-(2,4,6-Trimethylbenzenesulfonyl)-1H-indole]	33.3	–	EPAC2 inhibitory activity (in words) (EPAC2): almost retained activity
COC(=O)c1ccc2c(ccn2S(=O)(=O)c2c(C)cc(C)cc2C)c1 [Compound 22b, 1-(2,4,6-Trimethylbenzenesulfonyl)-1H-indole-5-carboxylic acid methyl ester]	<0.13	> 300	EPAC2 inhibitory activity (in words) (EPAC2): dramatic loss of activity
Cc1cc(C)c(S(=O)(=O)n2ccc3cc(C(=O)O)ccc32)c(C)c1 [Compound 22c, 1-(2,4,6-Trimethylbenzenesulfonyl)-1H-indole-5-carboxylic acid]	3.7	–	EPAC2 inhibitory activity (in words) (EPAC2): less active with a moderate potency
Cc1cc(C)c(S(=O)(=O)n2ccc3ncccc32)c(C)c1 [Compound 24a, 1-(2,4,6-Trimethylbenzenesulfonyl)-1H-pyrrolo[3,2-b]pyridine]	10.5	–	–
Cc1cc(C)c(S(=O)(=O)n2ccc3cnccc32)c(C)c1 [Compound 24b, 1-(2,4,6-Trimethylbenzenesulfonyl)-1H-pyrrolo[3,2-c]pyridine]	4.5	–	–
Cc1cc(C)c(S(=O)(=O)n2ccc3ccncc32)c(C)c1 [Compound 24c, 1-(2,4,6-Trimethylbenzenesulfonyl)-1H-pyrrolo[2,3-c]pyridine]	3.2	–	–
Cc1cc(C)c(S(=O)(=O)n2ccc3cccnc32)c(C)c1 [Compound 24d, 1-(2,4,6-Trimethylbenzenesulfonyl)-1H-pyrrolo[2,3-b]pyridine]	16.7	–	EPAC2 inhibitory activity (in words) (EPAC2): almost retained activity
O=S(=O)(NCCNC/C=C/c1ccc(Br)cc1)c1cccc2cnccc12 [Compound H89, N-[2-[[3-(4-bromophenyl)-2-propenyl]amino]ethyl]-5-isoquinolinesulfonamide dihydrochloride, reference compound]	–	–	Effect on cAMP-induced type II PKA holoenzyme activation (type II PKA holoenzyme): blocked the type I or II PKA activities completely; Effect on cAMP-induced type I PKA holoenzyme activation (type I PKA holoenzyme): blocked the type I or II PKA activities completely
